The assay deals with human PDHK2 (hPDHK2) (Homo sapiens (Human), UniProt Q15119). The experiment in a line: Inhibitory action of PDHK2 activity (PDH/hPDHK2 complex, residual PDH activity by NADH absorbance at 340 nm). The assay is classed as biochemical. The conditions noted are these: FLAG-tagged recombinant hPDHK2 with porcine heart PDH complex; PDHK reaction 45 min at room temperature. Put shortly:
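N-FLAG hPDHK2 from E. coli (0.5 μg/mL) preincubated overnight at 4 °C with porcine heart PDH complex (0.025 U/mL), pH 7.0 MOPS buffer. Pyruvate, CoA, NAD and TPP substrates added, 90 min at room temperature. Residual PDH activity from NADH A340 change, corrected for compound effect on PDH alone; IC50 from inhibition %.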

`C[C@H]1Cn2nc(C34CCC(C#N)(C3)C4)cc2-c2cnc([C@@](C)(O)C(F)(F)F)n21` [Example 91, 4-((S)-5-methyl-3-((R)-1,1,1-trifluoro-2-hydroxypropan-2-yl)-5,6-dihydroimidazo[1,5-a]pyrazolo[5,1-c]pyrazin-9-yl)bicyclo[2.1.1]hexane-1-carbonitrile]: the IC50 (usually the concentration needed to halve the response being measured) is 23.3 nM. In the case of `C[C@H]1Cn2nc(C34CCC(CO)(C3)C4)cc2-c2cnc([C@@](C)(O)C(F)(F)F)n21` [Example 92], the IC50 turned out to be 31.9 nM.

With `C[C@H]1Cn2nc(C34CCC(C#N)(CC3)CO4)cc2-c2cnc([C@@](C)(O)C(F)(F)F)n21` [Example 93, 1-((S)-5-methyl-3-((R)-1,1,1-trifluoro-2-hydroxypropan-2-yl)-5,6-dihydroimidazo[1,5-a]pyrazolo[5,1-c]pyrazin-9-yl)-2-oxabicyclo[2.2.2]octane-4-carbonitrile], the IC50 came out at 33.4 nM.

As to `C[C@H]1Cn2nc(C34CCC(CO)(CC3)CO4)cc2-c2cnc([C@@](C)(O)C(F)(F)F)n21` [Example 94], the IC50 was determined as 49.5 nM. Next, `C[C@H]1Cn2nc(OCC34CC(C#N)(C3)C4)cc2-c2cnc([C@@](C)(O)C(F)(F)F)n21` [Example 97, 3-((((S)-5-methyl-3-((R)-1,1,1-trifluoro-2-hydroxypropan-2-yl)-5,6-dihydroimidazo[1,5-a]pyrazolo[5,1-c]pyrazin-9-yl)oxy)methyl)bicyclo[1.1.1]pentane-1-carbonitrile]: 8.8 nM; `C[C@H]1Cn2nc(C34CCC(C(C)(C)O)(CC3)CO4)cc2-c2cnc([C@@](C)(O)C(F)(F)F)n21` [Example 98, (R)-1,1,1-trifluoro-2-((S)-9-(4-(2-hydroxypropan-2-yl)-2-oxabicyclo[2.2.2]octan-1-yl)-5-methyl-5,6-dihydroimidazo[1,5-a]pyrazolo[5,1-c]pyrazin-3-yl)propan-2-ol]: 9.1 nM. For the compound `C[C@H]1Cn2nc(C(F)(F)F)cc2-c2cnnc([C@@](C)(O)C(F)(F)F)c21` [Example 100, (R)-1,1,1-trifluoro-2-((R)-5-methyl-9-(trifluoromethyl)-5,6-dihydropyrazolo[1′,5′:1,2]pyrido[3,4-d]pyridazin-4-yl)propan-2-ol], the IC50 came to 11.1 nM.

As for `C[C@H]1Cc2nn([C@H]3CC[C@](C)(O)CC3)cc2-c2onc([C@@](C)(O)C(F)(F)F)c21` [Example 105, (1S,4r)-1-methyl-4-((S)-4-methyl-3-((R)-1,1,1-trifluoro-2-hydroxypropan-2-yl)-4,5-dihydro-7H-isoxazolo[5,4-e]indazol-7-yl)cyclohexan-1-ol], the IC50 turned out to be 10 nM.

The record behind these values is patent US20240417406A1, “NITROGEN-CONTAINING TRICYCLIC COMPOUND AND PHARMACEUTICAL USE THEREOF” (JAPAN TOBACCO INC., priority 2021, published 2024).
